system: Aspergillus fumigatus; experiment: Antimicrobial activity against Aspergillus fumigatus 231 after 48 hrs by spectrophotometry; format: functional; conditions: Aspergillus fumigatus, 231, 48 h

Compound	MFC [µM]	MIC [µM]
CCCCCCCCCCCC[n+]1ccc2c(O)cccc2c1	250	31
CCCCCCCCCCCC[n+]1ccc2ccccc2c1 [LAURYL ISOQUINOLINIUM BROMIDE]	125	125

system: Escherichia coli; experiment: Antimicrobial activity against clinical isolate Escherichia coli CCM 4517 after 48 hrs; format: functional; conditions: CCM 4517, 48 h

Compound	MBC [µM]	MIC [µM]
CCCCCCCCCCCC[n+]1ccc2c(O)cccc2c1	250	250
CCCCCCCCCCCC[n+]1ccc2ccccc2c1 [LAURYL ISOQUINOLINIUM BROMIDE]	31	7.8

system: Lichtheimia corymbifera; experiment: Antimicrobial activity against Absidia corymbifera 272 after 48 hrs by spectrophotometry; format: functional; conditions: Lichtheimia corymbifera, 272, 48 h

Compound	MFC [µM]	MIC [µM]
CCCCCCCCCCCC[n+]1ccc2c(O)cccc2c1	250	125
CCCCCCCCCCCC[n+]1ccc2ccccc2c1 [LAURYL ISOQUINOLINIUM BROMIDE]	250	250

system: Staphylococcus aureus; experiment: Antimicrobial activity against clinical isolate Staphylococcus aureus CCM 451608 after 24 hrs; format: functional; conditions: CCM 451608, 24 h

Compound	MIC [µM]
CCCCCCCCCCCC[n+]1ccc2c(O)cccc2c1	1
CCCCCCCCCCCC[n+]1ccc2ccccc2c1 [LAURYL ISOQUINOLINIUM BROMIDE]	0.5

system: Candida albicans; experiment: Antimicrobial activity against Candida albicans ATCC 44859 after 48 hrs by spectrophotometry; format: functional; conditions: ATCC 44859, 48 h

Compound	MFC [µM]	MIC [µM]
CCCCCCCCCCCC[n+]1ccc2c(O)cccc2c1	63	63
CCCCCCCCCCCC[n+]1ccc2ccccc2c1 [LAURYL ISOQUINOLINIUM BROMIDE]	1	0.5

system: Staphylococcus aureus; experiment: Antimicrobial activity against clinical isolate methicillin-resistant Staphylococcus aureus H 599608 after 48 hrs; format: functional; conditions: H 599608, 48 h

Compound	MBC [µM]	MIC [µM]
CCCCCCCCCCCC[n+]1ccc2c(O)cccc2c1	3.9	3.9
CCCCCCCCCCCC[n+]1ccc2ccccc2c1 [LAURYL ISOQUINOLINIUM BROMIDE]	1	0.5

system: Staphylococcus epidermidis; experiment: Antimicrobial activity against clinical isolate Staphylococcus epidermidis H 696608 after 48 hrs; format: functional; conditions: H 696608, 48 h

Compound	MBC [µM]	MIC [µM]
CCCCCCCCCCCC[n+]1ccc2c(O)cccc2c1	3.9	3.9
CCCCCCCCCCCC[n+]1ccc2ccccc2c1 [LAURYL ISOQUINOLINIUM BROMIDE]	1	0.5

system: Klebsiella pneumoniae; experiment: Antimicrobial activity against clinical isolate Klebsiella pneumoniae D 1175008 after 24 hrs; format: functional; conditions: D 1175008, 24 h

Compound	MIC [µM]
CCCCCCCCCCCC[n+]1ccc2c(O)cccc2c1	63
CCCCCCCCCCCC[n+]1ccc2ccccc2c1 [LAURYL ISOQUINOLINIUM BROMIDE]	16

system: Trichosporon asahii; experiment: Antimicrobial activity against Trichosporon asahii 1188 after 48 hrs by spectrophotometry; format: functional; conditions: Trichosporon asahii, 1188, 48 h

Compound	MFC [µM]	MIC [µM]
CCCCCCCCCCCC[n+]1ccc2c(O)cccc2c1	31	31
CCCCCCCCCCCC[n+]1ccc2ccccc2c1 [LAURYL ISOQUINOLINIUM BROMIDE]	63	63

system: Candida tropicalis; experiment: Antimicrobial activity against Candida tropicalis 156 after 24 hrs by spectrophotometry; format: functional; conditions: Candida tropicalis, 156, 24 h

Compound	MIC [µM]
CCCCCCCCCCCC[n+]1ccc2c(O)cccc2c1	31
CCCCCCCCCCCC[n+]1ccc2ccccc2c1 [LAURYL ISOQUINOLINIUM BROMIDE]	0.5

system: Klebsiella pneumoniae; experiment: Antimicrobial activity against clinical isolate ESBL-Klebsiella pneumoniae J 1436808 after 48 hrs; format: functional; conditions: J 1436808, 48 h

Compound	MBC [µM]	MIC [µM]
CCCCCCCCCCCC[n+]1ccc2c(O)cccc2c1	63	63
CCCCCCCCCCCC[n+]1ccc2ccccc2c1 [LAURYL ISOQUINOLINIUM BROMIDE]	125	63

system: Klebsiella pneumoniae; experiment: Antimicrobial activity against clinical isolate Klebsiella pneumoniae D 1175008 after 48 hrs; format: functional; conditions: D 1175008, 48 h

Compound	MBC [µM]	MIC [µM]
CCCCCCCCCCCC[n+]1ccc2c(O)cccc2c1	63	63
CCCCCCCCCCCC[n+]1ccc2ccccc2c1 [LAURYL ISOQUINOLINIUM BROMIDE]	63	16

system: Lichtheimia corymbifera; experiment: Antimicrobial activity against Absidia corymbifera 272 after 24 hrs by spectrophotometry; format: functional; conditions: Lichtheimia corymbifera, 272, 24 h

Compound	MIC [µM]
CCCCCCCCCCCC[n+]1ccc2c(O)cccc2c1	125
CCCCCCCCCCCC[n+]1ccc2ccccc2c1 [LAURYL ISOQUINOLINIUM BROMIDE]	250

system: Staphylococcus epidermidis; experiment: Antimicrobial activity against clinical isolate Staphylococcus epidermidis H 696608 after 24 hrs; format: functional; conditions: H 696608, 24 h

Compound	MIC [µM]
CCCCCCCCCCCC[n+]1ccc2c(O)cccc2c1	3.9
CCCCCCCCCCCC[n+]1ccc2ccccc2c1 [LAURYL ISOQUINOLINIUM BROMIDE]	0.5

system: Enterococcus sp.; experiment: Antimicrobial activity against clinical isolate Enterococcus sp. J 1436508 after 48 hrs; format: functional; conditions: J 1436508, 48 h

Compound	MBC [µM]	MIC [µM]
CCCCCCCCCCCC[n+]1ccc2c(O)cccc2c1	63	63
CCCCCCCCCCCC[n+]1ccc2ccccc2c1 [LAURYL ISOQUINOLINIUM BROMIDE]	63	7.8

system: Klebsiella pneumoniae; experiment: Antimicrobial activity against clinical isolate ESBL-Klebsiella pneumoniae J 1436808 after 24 hrs; format: functional; conditions: J 1436808, 24 h

Compound	MIC [µM]
CCCCCCCCCCCC[n+]1ccc2c(O)cccc2c1	63
CCCCCCCCCCCC[n+]1ccc2ccccc2c1 [LAURYL ISOQUINOLINIUM BROMIDE]	63

system: Candida tropicalis; experiment: Antimicrobial activity against Candida tropicalis 156 after 48 hrs by spectrophotometry; format: functional; conditions: Candida tropicalis, 156, 48 h

Compound	MFC [µM]	MIC [µM]
CCCCCCCCCCCC[n+]1ccc2c(O)cccc2c1	63	31
CCCCCCCCCCCC[n+]1ccc2ccccc2c1 [LAURYL ISOQUINOLINIUM BROMIDE]	1	0.5

system: Staphylococcus aureus; experiment: Antimicrobial activity against clinical isolate Staphylococcus aureus CCM 451608 after 48 hrs; format: functional; conditions: CCM 451608, 48 h

Compound	MBC [µM]	MIC [µM]
CCCCCCCCCCCC[n+]1ccc2c(O)cccc2c1	2	1
CCCCCCCCCCCC[n+]1ccc2ccccc2c1 [LAURYL ISOQUINOLINIUM BROMIDE]	1	0.5

system: Pseudomonas aeruginosa; experiment: Antimicrobial activity against clinical isolate Pseudomonas aeruginosa CCM 1961 after 72 hrs; format: functional; conditions: CCM 1961, 72 h

Compound	MIC [µM]
CCCCCCCCCCCC[n+]1ccc2c(O)cccc2c1	63
CCCCCCCCCCCC[n+]1ccc2ccccc2c1 [LAURYL ISOQUINOLINIUM BROMIDE]	250

system: Trichophyton mentagrophytes; experiment: Antimicrobial activity against Trichophyton mentagrophytes 445 after 120 hrs by spectrophotometry; format: functional; conditions: Trichophyton mentagrophytes, 445, 120 h

Compound	MFC [µM]	MIC [µM]
CCCCCCCCCCCC[n+]1ccc2c(O)cccc2c1	63	31
CCCCCCCCCCCC[n+]1ccc2ccccc2c1 [LAURYL ISOQUINOLINIUM BROMIDE]	16	7.8

system: Enterococcus sp.; experiment: Antimicrobial activity against clinical isolate Enterococcus sp. J 1436508 after 24 hrs; format: functional; conditions: J 1436508, 24 h

Compound	MIC [µM]
CCCCCCCCCCCC[n+]1ccc2c(O)cccc2c1	63
CCCCCCCCCCCC[n+]1ccc2ccccc2c1 [LAURYL ISOQUINOLINIUM BROMIDE]	7.8

system: Candida albicans; experiment: Antimicrobial activity against Candida albicans ATCC 44859 after 24 hrs by spectrophotometry; format: functional; conditions: ATCC 44859, 24 h

Compound	MIC [µM]
CCCCCCCCCCCC[n+]1ccc2c(O)cccc2c1	63
CCCCCCCCCCCC[n+]1ccc2ccccc2c1 [LAURYL ISOQUINOLINIUM BROMIDE]	0.5

system: Escherichia coli; experiment: Antimicrobial activity against clinical isolate Escherichia coli CCM 4517 after 24 hrs; format: functional; conditions: CCM 4517, 24 h

Compound	MIC [µM]
CCCCCCCCCCCC[n+]1ccc2c(O)cccc2c1	250
CCCCCCCCCCCC[n+]1ccc2ccccc2c1 [LAURYL ISOQUINOLINIUM BROMIDE]	7.8

system: Nakaseomyces glabratus; experiment: Antimicrobial activity against Candida glabrata 20/I after 48 hrs by spectrophotometry; format: functional; conditions: not given

Compound	MFC [µM]	MIC [µM]
CCCCCCCCCCCC[n+]1ccc2c(O)cccc2c1	7.8	3.9
CCCCCCCCCCCC[n+]1ccc2ccccc2c1 [LAURYL ISOQUINOLINIUM BROMIDE]	1	0.5

system: Staphylococcus aureus; experiment: Antimicrobial activity against clinical isolate methicillin-resistant Staphylococcus aureus H 599608 after 24 hrs; format: functional; conditions: H 599608, 24 h

Compound	MIC [µM]
CCCCCCCCCCCC[n+]1ccc2c(O)cccc2c1	3.9
CCCCCCCCCCCC[n+]1ccc2ccccc2c1 [LAURYL ISOQUINOLINIUM BROMIDE]	0.5

system: Nakaseomyces glabratus; experiment: Antimicrobial activity against Candida glabrata 20/I after 24 hrs by spectrophotometry; format: functional; conditions: not given

Compound	MIC [µM]
CCCCCCCCCCCC[n+]1ccc2c(O)cccc2c1	3.9
CCCCCCCCCCCC[n+]1ccc2ccccc2c1 [LAURYL ISOQUINOLINIUM BROMIDE]	0.5

system: Aspergillus fumigatus; experiment: Antimicrobial activity against Aspergillus fumigatus 231 after 24 hrs by spectrophotometry; format: functional; conditions: Aspergillus fumigatus, 231, 24 h

Compound	MIC [µM]
CCCCCCCCCCCC[n+]1ccc2c(O)cccc2c1	31
CCCCCCCCCCCC[n+]1ccc2ccccc2c1 [LAURYL ISOQUINOLINIUM BROMIDE]	125

system: Pichia kudriavzevii; experiment: Antimicrobial activity against Candida krusei E28 after 48 hrs by spectrophotometry; format: functional; conditions: E28, 48 h

Compound	MFC [µM]	MIC [µM]
CCCCCCCCCCCC[n+]1ccc2c(O)cccc2c1	7.8	7.8
CCCCCCCCCCCC[n+]1ccc2ccccc2c1 [LAURYL ISOQUINOLINIUM BROMIDE]	1	0.5

system: Pichia kudriavzevii; experiment: Antimicrobial activity against Candida krusei E28 after 24 hrs by spectrophotometry; format: functional; conditions: E28, 24 h

Compound	MIC [µM]
CCCCCCCCCCCC[n+]1ccc2c(O)cccc2c1	7.8
CCCCCCCCCCCC[n+]1ccc2ccccc2c1 [LAURYL ISOQUINOLINIUM BROMIDE]	0.5

system: Trichophyton mentagrophytes; experiment: Antimicrobial activity against Trichophyton mentagrophytes 445 after 72 hrs by spectrophotometry; format: functional; conditions: Trichophyton mentagrophytes, 445, 72 h

Compound	MIC [µM]
CCCCCCCCCCCC[n+]1ccc2c(O)cccc2c1	31
CCCCCCCCCCCC[n+]1ccc2ccccc2c1 [LAURYL ISOQUINOLINIUM BROMIDE]	7.8

system: not listed separately; experiment: Cytotoxicity against CHOK1 cells after 24 hrs by MTT assay; format: cell-based; conditions: Cricetulus griseus, CHO-K1, 24 h

Compound	IC50 [µM]
CCCCCCCCCCCC[n+]1ccc2c(O)cccc2c1	36
CCCCCCCCCCCC[n+]1ccc2ccccc2c1 [LAURYL ISOQUINOLINIUM BROMIDE]	15

system: Trichosporon asahii; experiment: Antimicrobial activity against Trichosporon asahii 1188 after 24 hrs by spectrophotometry; format: functional; conditions: Trichosporon asahii, 1188, 24 h

Compound	MIC [µM]
CCCCCCCCCCCC[n+]1ccc2c(O)cccc2c1	31
CCCCCCCCCCCC[n+]1ccc2ccccc2c1 [LAURYL ISOQUINOLINIUM BROMIDE]	63

system: Pseudomonas aeruginosa; experiment: Antimicrobial activity against clinical isolate Pseudomonas aeruginosa CCM 1961 after 120 hrs; format: functional; conditions: CCM 1961, 120 h

Compound	MBC [µM]	MIC [µM]
CCCCCCCCCCCC[n+]1ccc2c(O)cccc2c1	63	63
CCCCCCCCCCCC[n+]1ccc2ccccc2c1 [LAURYL ISOQUINOLINIUM BROMIDE]	250	250

From ChEMBL document CHEMBL3751693, “Synthesis, antimicrobial evaluation and molecular modeling of 5-hydroxyisoquinolinium salt series; the effect of the hydroxyl moiety” (Bioorg Med Chem, 2016)
